Test results taken from patent US8273890B2 (4SC AG, priority 2007, dated 2012).

Tested on: not given
Assay: not given
Settings: not given

melting point	SMILES
248 to 249 °C (dec.)	NC(=O)c1sc(-n2cnc3cnc(Cl)cc32)cc1OCc1ccccc1C(F)(F)F [Example 1, 5-(6-Chloro-1H-imidazo[4,5-c]pyridin-1-yl)-3-{[2-(trifluoromethyl)benzyl]oxy}thiophene-2-carboxamide]
226 to 227 °C (dec.)	NC(=O)c1sc(-n2cnc3cnccc32)cc1OCc1ccccc1C(F)(F)F [Example 2, 5-(1H-Imidazo[4,5-c]pyridin-1-yl)-3-{[2-(trifluoromethyl)benzyl]oxy}thio-phene-2-carboxamide]

Target: T1, recombinant Plk1 protein (Homo sapiens, UniProt P53350)
T1 construct: histidine tag (N); made in house; host or cells: SF9 insect cells
Assay: Plk1 kinase activity inhibition assay (33P-ATP, alpha casein substrate, flash plates)
Assay type: biochemical
Settings: enzymatic assay, 100 nM Li-ATP, 80 minutes at 30° C.
How it was run: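 IC50 derived from radioactive flash-plate counts of 33P-labelled alpha casein after 80 min at 30 °C. Reaction: 100 nM 33P-containing ATP, 50–100 ng His-tagged Plk1 (SF9-expressed), 500 ng casein per well, HEPES pH 7.5 buffer with MgCl2/MnCl2.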

T1 sequence (P53350 whole entry): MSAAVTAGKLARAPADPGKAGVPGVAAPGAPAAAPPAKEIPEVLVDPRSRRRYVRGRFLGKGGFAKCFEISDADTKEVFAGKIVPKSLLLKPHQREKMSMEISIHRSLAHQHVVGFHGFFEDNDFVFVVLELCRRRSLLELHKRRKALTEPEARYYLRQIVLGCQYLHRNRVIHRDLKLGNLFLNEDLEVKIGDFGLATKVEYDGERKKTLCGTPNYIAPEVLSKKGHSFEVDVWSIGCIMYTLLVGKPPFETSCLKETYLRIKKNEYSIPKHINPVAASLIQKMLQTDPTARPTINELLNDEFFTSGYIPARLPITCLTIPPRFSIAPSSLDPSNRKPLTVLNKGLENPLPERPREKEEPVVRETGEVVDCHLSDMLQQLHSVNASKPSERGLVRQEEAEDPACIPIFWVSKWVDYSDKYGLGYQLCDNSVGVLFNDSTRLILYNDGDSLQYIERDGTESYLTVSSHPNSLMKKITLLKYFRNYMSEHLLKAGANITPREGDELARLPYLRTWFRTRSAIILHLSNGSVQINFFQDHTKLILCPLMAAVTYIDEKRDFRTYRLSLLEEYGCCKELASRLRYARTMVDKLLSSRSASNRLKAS

IC50	SMILES
10 to 100 nM	NC(=O)c1sc(-n2cnc3cnc(Cl)cc32)cc1OCc1ccccc1C(F)(F)F [Example 1, 5-(6-Chloro-1H-imidazo[4,5-c]pyridin-1-yl)-3-{[2-(trifluoromethyl)benzyl]oxy}thiophene-2-carboxamide]
10 to 100 nM	NC(=O)c1sc(-n2cnc3cnccc32)cc1OCc1ccccc1C(F)(F)F [Example 2, 5-(1H-Imidazo[4,5-c]pyridin-1-yl)-3-{[2-(trifluoromethyl)benzyl]oxy}thio-phene-2-carboxamide]
100 to 1000 nM	CCOc1ccc(OCC)c(COc2cc(-n3cnc4cnc(CN5CCN(C)CC5)cc43)sc2C(N)=O)c1 [Example 155, 3-[(2,5-diethoxybenzyl)oxy]-5-{6-[(4-methylpiperazin-1-yl)methyl]-1H-imidazo[4,5-c]pyridin-1-yl}thiophene-2-carboxamide]
1000 to 10000 nM	CC(Oc1cc(-n2cnc3cc(CNC4CCN(C)CC4)ncc32)sc1C(N)=O)c1ccccc1F (centres unmarked) [Example 156, 3-[-1-(2-fluorophenyl)ethoxy]-5-(6-{[(1-methylpiperidin-4-yl)amino]methyl}-3H-imidazo[4,5-c]pyridin-3-yl)thiophene-2-carboxamide]
100 to 1000 nM	COCCN1CCN(Cc2cc3ncn(-c4cc(OC(C)c5ccccc5F)c(C(N)=O)s4)c3cn2)CC1 (centres unmarked) [Example 157, 3-[-1-(2-fluorophenyl)ethoxy]-5-(6-{[4-(2-methoxyethyl)piperazin-1-yl]methyl}-3H-imidazo[4,5-c]pyridin-3-yl)thiophene-2-carboxamide]
1000 to 10000 nM	CC(Oc1cc(-n2cnc3cc(CN4CCOCC4)ncc32)sc1C(N)=O)c1ccccc1F (centres unmarked) [Example 158, 3-[-1-(2-fluorophenyl)ethoxy]-5-[6-(morpholin-4-ylmethyl)-3H-imidazo[4,5-c]pyridin-3-yl]thiophene-2-carboxamide]
10 to 100 nM	C[C@@H](Oc1cc(-n2cnc3cnc(CN4CCN(C(=O)C(F)(F)F)CC4)cc32)sc1C(N)=O)c1ccccc1C(F)(F)F [Example 159, 5-(6-{[4-(trifluoroacetyl)piperazin-1-yl]methyl}-1H-imidazo[4,5-c]pyridin-1-yl)-3-{(1R)-1-[2-(trifluoromethyl)phenyl]ethoxy}thiophene-2-carboxamide]
1000 to 10000 nM	CC(Oc1cc(-n2cnc3cc(CN4CCN(C(=O)c5ccccc5)CC4)ncc32)sc1C(N)=O)c1ccccc1F (centres unmarked) [Example 160, 5-{6-[(4-benzoylpiperazin-1-yl)methyl]3H-imidazo[4,5-c]pyridin-3-yl}-3-[-1-(2-fluorophenyl)ethoxy]thiophene-2-carboxamide]
1000 to 10000 nM	CC(Oc1cc(-n2cnc3cc(CN4CCS(=O)(=O)CC4)ncc32)sc1C(N)=O)c1ccccc1F (centres unmarked) [Example 161, 5-{6-[(1,1-dioxidothiomorpholin-4-yl)methyl]-3H-imidazo[4,5-c]pyridin-3-yl}-3-[-1-(2-fluorophenyl)ethoxy]thiophene-2-carboxamide]
10 to 100 nM	CCc1ccccc1COc1cc(-n2cnc3cnc(CO)cc32)sc1C(N)=O [Example 162, 3-[(2-ethylbenzyl)oxy]-5-[6-(hydroxymethyl)-1H-imidazo[4,5-c]pyridin-1-yl]thiophene-2-carboxamide]
10 to 100 nM	CC(Oc1cc(-n2cnc3cc(CO)ncc32)sc1C(N)=O)c1ccccc1F (centres unmarked) [Example 163, 3-[-1-(2-fluorophenyl)ethoxy]-5-[6-(hydroxymethyl)-3H-imidazo[4,5-c]pyridin-3-yl]thiophene-2-carboxamide]
< 10 nM	C[C@@H](Oc1cc(-n2cnc3cnc(CN4CCCN(C)CC4)cc32)sc1C(N)=O)c1ccccc1C(F)(F)F [Example 164, 5-{6-[(4-methyl-1,4-diazepan-1-yl)methyl]-1H-imidazo[4,5-c]pyridin-1-yl}-3-{(1R)-1-[2-(trifluoromethyl)phenyl]ethoxy}thiophene-2-carboxamide]
